The target in this assay is T1, SH (O2-tolerant, NAD+-reducing hydrogenase, soluble hydrogenase) (Cupriavidus necator, UniProt P22317).
T1 construct: gene hoxF; purified; immobilised on Amberlite FP54; hydrogenase and diaphorase modules; with NAD-reducing hydrogenase HoxS subunit gamma; NAD-reducing hydrogenase HoxS subunit delta; NAD-reducing hydrogenase HoxS subunit beta; NAD-reducing hydrogenase subunit HoxI
Put plainly: on-line H2 consumption and NADH evolution. Format: biochemical. The following applies: immobilised enzyme in cascade; 2 mM NAD+, H2, Tris-HCl 50 mM pD 8.0, 22 °C.

T1 sequence (P22317 whole entry): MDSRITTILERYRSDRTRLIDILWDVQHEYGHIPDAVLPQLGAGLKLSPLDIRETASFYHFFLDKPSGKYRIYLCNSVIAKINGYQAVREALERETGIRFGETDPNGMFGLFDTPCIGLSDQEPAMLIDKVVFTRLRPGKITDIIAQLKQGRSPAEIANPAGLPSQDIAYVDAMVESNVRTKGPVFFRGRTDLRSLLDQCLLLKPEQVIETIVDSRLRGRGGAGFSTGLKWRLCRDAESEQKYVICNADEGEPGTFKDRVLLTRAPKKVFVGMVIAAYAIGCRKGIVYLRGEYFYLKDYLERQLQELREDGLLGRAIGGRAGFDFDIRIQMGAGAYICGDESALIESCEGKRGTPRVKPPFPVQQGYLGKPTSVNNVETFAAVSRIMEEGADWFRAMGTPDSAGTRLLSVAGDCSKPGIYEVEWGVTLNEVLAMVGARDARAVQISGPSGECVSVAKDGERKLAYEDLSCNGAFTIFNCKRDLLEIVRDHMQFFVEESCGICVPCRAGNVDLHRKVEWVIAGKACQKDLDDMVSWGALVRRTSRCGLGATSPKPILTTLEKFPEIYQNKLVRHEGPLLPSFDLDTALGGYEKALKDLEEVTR
T1 sequence (P22318 2-234 partner): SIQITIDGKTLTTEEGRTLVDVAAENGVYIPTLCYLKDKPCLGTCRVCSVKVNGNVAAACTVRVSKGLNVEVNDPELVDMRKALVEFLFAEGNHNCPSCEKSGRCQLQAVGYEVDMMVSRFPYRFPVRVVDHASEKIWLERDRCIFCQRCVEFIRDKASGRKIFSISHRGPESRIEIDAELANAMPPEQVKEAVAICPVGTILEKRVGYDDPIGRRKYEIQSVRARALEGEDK
T1 sequence (P22319 whole entry partner): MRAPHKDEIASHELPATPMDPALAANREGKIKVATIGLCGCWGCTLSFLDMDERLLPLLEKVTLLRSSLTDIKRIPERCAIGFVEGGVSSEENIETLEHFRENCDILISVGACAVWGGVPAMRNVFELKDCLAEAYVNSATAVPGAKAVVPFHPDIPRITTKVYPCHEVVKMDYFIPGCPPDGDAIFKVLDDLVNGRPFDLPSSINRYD
T1 sequence (P22320 2-464 partner): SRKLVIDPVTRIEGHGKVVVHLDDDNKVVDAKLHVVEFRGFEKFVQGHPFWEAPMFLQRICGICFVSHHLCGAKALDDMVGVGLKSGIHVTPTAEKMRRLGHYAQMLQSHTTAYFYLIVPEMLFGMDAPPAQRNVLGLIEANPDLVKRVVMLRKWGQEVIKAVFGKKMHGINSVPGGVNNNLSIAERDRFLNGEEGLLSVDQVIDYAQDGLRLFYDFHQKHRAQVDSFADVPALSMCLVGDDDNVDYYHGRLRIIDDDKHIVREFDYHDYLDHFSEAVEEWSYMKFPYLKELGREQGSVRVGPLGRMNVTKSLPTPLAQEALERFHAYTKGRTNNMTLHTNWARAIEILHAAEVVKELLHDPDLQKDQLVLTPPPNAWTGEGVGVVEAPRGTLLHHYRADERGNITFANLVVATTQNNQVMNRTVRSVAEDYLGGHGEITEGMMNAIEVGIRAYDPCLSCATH

On to `NC(=O)c1ccc[n+]([C@@H]2O[C@H](COP(=O)(O)OP(=O)(O)OC[C@H]3O[C@@H](n4cnc5c(N)ncnc54)[C@H](O)[C@@H]3O)[C@@H](O)[C@H]2O)c1` [NAD^+], for which the “on-line H2 consumption and NADH evolution” value is “consumption of H2 (A) and the evolution of NADH (C)”.

Values taken from publication PMC7318245, “Powering Artificial Enzymatic Cascades with Electrical Energy” (Angewandte Chemie (International Ed. in English), 2020).
